# Measured values reported in ChEMBL document CHEMBL1201862, “PubChem BioAssay data set” (2004).
#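 Exposure lasted 48 hours, with cells grown in 96-well plates and compounds tested at five concentrations. Abbreviation: GI50, concentration required for 50% inhibition of growth.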 Activity calls are given as the source filed them. Rule as the data show it: active = GI50 up to about 1.1 µM and inactive = higher.
# Experiments:
# Test in all cases: NCI tumour cell line growth inhibition, 48 h
# A498 = test system: A498
# K562 = test system: K562
# Malme-3M = test system: Malme-3M
# IGROV-1 = test system: IGROV-1
# MOLT-4 = test system: MOLT-4
# NCI-H226 = test system: NCI-H226
# MDA-MB-231 = test system: MDA-MB-231
# KM12 = test system: KM12
# UACC-257 = test system: UACC-257
# HCT-15 = test system: HCT-15
# SNB-19 = test system: SNB-19
# HCC 2998 = test system: HCC 2998
# NCI-H23 = test system: NCI-H23
# OVCAR-5 = test system: OVCAR-5
# BT-549 = test system: BT-549
# MDA-MB-435 = test system: MDA-MB-435
# SK-MEL-2 = test system: SK-MEL-2
# PC-3 = test system: PC-3
# HOP-62 = test system: HOP-62
# MDA-N = test system: MDA-N
# TK-10 = test system: TK-10
# NCI/ADR-RES = test system: NCI/ADR-RES
# HOP-92 = test system: HOP-92
# A549 = test system: A549
# HCT-116 = test system: HCT-116
# CAKI-1 = test system: CAKI-1
# OVCAR-4 = test system: OVCAR-4
# SN12C = test system: SN12C
# EKVX = test system: EKVX
# MCF7 = test system: MCF7
# Hs-578T = test system: Hs-578T
# OVCAR-8 = test system: OVCAR-8
# HL-60 = test system: HL-60
# NCI-H522 = test system: NCI-H522
# SR = test system: SR
# U-251 = test system: U-251
# M14 = test system: M14
# RXF 393 = test system: RXF 393
# ACHN = test system: ACHN
# OVCAR-3 = test system: OVCAR-3
# UO-31 = test system: UO-31
# CCRF-CEM = test system: CCRF-CEM
# SF-539 = test system: SF-539
# COLO 205 = test system: COLO 205
# LOX IMVI = test system: LOX IMVI
# SK-OV-3 = test system: SK-OV-3
# 786-0 = test system: 786-0
# SK-MEL-5 = test system: SK-MEL-5
# NCI-H460 = test system: NCI-H460
# UACC-62 = test system: UACC-62
# HT-29 = test system: HT-29
# SF-268 = test system: SF-268
# SF-295 = test system: SF-295
# SW-620 = test system: SW-620
# SNB-75 = test system: SNB-75
# DU-145 = test system: DU-145
# T47D = test system: T47D
# SK-MEL-28 = test system: SK-MEL-28
# RPMI-8226 = test system: RPMI-8226
compound,measurement,setting,value
O=[N+]([O-])c1ccc(Sc2c3ccccc3nc3ccccc23)cn1,GI50,A498,> 100 µM (inactive)
same,GI50,K562,2.49 µM (inactive)
same,GI50,Malme-3M,3.24 µM (inactive)
same,GI50,IGROV-1,32.4 µM (inactive)
same,GI50,MOLT-4,2.19 µM (inactive)
same,GI50,NCI-H226,> 100 µM (inactive)
same,GI50,MDA-MB-231,18 µM (inactive)
same,GI50,KM12,33.1 µM (inactive)
same,GI50,UACC-257,15.5 µM (inactive)
same,GI50,HCT-15,9.55 µM
same,GI50,SNB-19,24.5 µM (inactive)
same,GI50,HCC 2998,45.6 µM (inactive)
same,GI50,NCI-H23,15.9 µM (inactive)
same,GI50,OVCAR-5,> 62.4 µM (inactive)
same,GI50,BT-549,14.6 µM (inactive)
same,GI50,MDA-MB-435,16.7 µM (inactive)
same,GI50,SK-MEL-2,25.4 µM (inactive)
same,GI50,PC-3,15.5 µM (inactive)
same,GI50,HOP-62,> 42.6 µM (inactive)
same,GI50,MDA-N,14.3 µM (inactive)
same,GI50,TK-10,10.1 µM (inactive)
same,GI50,NCI/ADR-RES,39.5 µM (inactive)
same,GI50,HOP-92,4.28 µM (inactive)
same,GI50,A549,> 100 µM (inactive)
same,GI50,HCT-116,3.6 µM (inactive)
same,GI50,CAKI-1,5.61 µM (inactive)
same,GI50,OVCAR-4,21.2 µM (inactive)
same,GI50,SN12C,18.7 µM (inactive)
same,GI50,EKVX,> 57.4 µM (inactive)
same,GI50,MCF7,4.48 µM (inactive)
same,GI50,Hs-578T,18 µM (inactive)
same,GI50,OVCAR-8,15.3 µM (inactive)
same,GI50,HL-60,10.8 µM (inactive)
same,GI50,NCI-H522,4.08 µM (inactive)
same,GI50,SR,3.12 µM (inactive)
same,GI50,U-251,> 44.2 µM (inactive)
same,GI50,M14,8.97 µM (inactive)
same,GI50,RXF 393,31.8 µM (inactive)
same,GI50,ACHN,12.2 µM (inactive)
same,GI50,OVCAR-3,8.11 µM (inactive)
same,GI50,UO-31,15.3 µM (inactive)
same,GI50,CCRF-CEM,2.39 µM (inactive)
same,GI50,SF-539,8.77 µM (inactive)
same,GI50,COLO 205,3.36 µM (inactive)
same,GI50,LOX IMVI,13 µM (inactive)
same,GI50,SK-OV-3,> 53.8 µM (inactive)
same,GI50,786-0,2.59 µM (inactive)
same,GI50,SK-MEL-5,35.1 µM (inactive)
same,GI50,NCI-H460,> 72.9 µM (inactive)
same,GI50,UACC-62,18.7 µM (inactive)
same,GI50,HT-29,9.02 µM (inactive)
same,GI50,SF-268,20.8 µM (inactive)
same,GI50,SF-295,> 100 µM (inactive)
same,GI50,SW-620,3.88 µM (inactive)
same,GI50,SNB-75,24.9 µM (inactive)
same,GI50,DU-145,13.5 µM (inactive)
same,GI50,T47D,4.92 µM (inactive)
same,GI50,SK-MEL-28,24.7 µM (inactive)
N#CC(C(=O)O)C(c1c(Cl)cccc1Cl)C(C#N)C(=O)O (stereo unspecified),GI50,A498,> 100 µM (inactive)
same,GI50,K562,> 100 µM (inactive)
same,GI50,Malme-3M,> 100 µM (inactive)
same,GI50,IGROV-1,> 100 µM (inactive)
same,GI50,MOLT-4,> 100 µM (inactive)
same,GI50,NCI-H226,> 100 µM (inactive)
same,GI50,MDA-MB-231,> 100 µM (inactive)
same,GI50,KM12,> 100 µM (inactive)
same,GI50,UACC-257,> 100 µM (inactive)
same,GI50,HCT-15,> 100 µM
same,GI50,SNB-19,> 100 µM (inactive)
same,GI50,NCI-H23,> 100 µM (inactive)
same,GI50,OVCAR-5,> 100 µM (inactive)
same,GI50,BT-549,> 100 µM (inactive)
same,GI50,MDA-MB-435,> 100 µM (inactive)
same,GI50,SK-MEL-2,> 100 µM (inactive)
same,GI50,PC-3,> 100 µM (inactive)
same,GI50,HOP-62,> 100 µM (inactive)
same,GI50,MDA-N,> 100 µM (inactive)
same,GI50,TK-10,> 100 µM (inactive)
same,GI50,NCI/ADR-RES,> 100 µM (inactive)
same,GI50,HOP-92,> 100 µM (inactive)
same,GI50,A549,> 100 µM (inactive)
same,GI50,HCT-116,> 100 µM (inactive)
same,GI50,CAKI-1,> 100 µM (inactive)
same,GI50,OVCAR-4,> 100 µM (inactive)
same,GI50,SN12C,> 100 µM (inactive)
same,GI50,RPMI-8226,> 100 µM (inactive)
same,GI50,EKVX,> 100 µM (inactive)
same,GI50,MCF7,> 100 µM (inactive)
same,GI50,Hs-578T,> 100 µM (inactive)
same,GI50,OVCAR-8,> 100 µM (inactive)
same,GI50,HL-60,> 100 µM (inactive)
same,GI50,NCI-H522,> 100 µM (inactive)
same,GI50,SR,> 100 µM (inactive)
same,GI50,U-251,> 100 µM (inactive)
same,GI50,M14,> 100 µM (inactive)
same,GI50,ACHN,> 100 µM (inactive)
same,GI50,OVCAR-3,> 100 µM (inactive)
same,GI50,UO-31,> 100 µM (inactive)
same,GI50,SF-539,> 100 µM (inactive)
same,GI50,COLO 205,> 100 µM (inactive)
same,GI50,LOX IMVI,> 100 µM (inactive)
same,GI50,SK-OV-3,> 100 µM (inactive)
same,GI50,786-0,> 100 µM (inactive)
same,GI50,SK-MEL-5,> 100 µM (inactive)
same,GI50,NCI-H460,> 100 µM (inactive)
same,GI50,UACC-62,> 100 µM (inactive)
same,GI50,HT-29,> 100 µM (inactive)
same,GI50,SF-268,> 100 µM (inactive)
same,GI50,SF-295,> 100 µM (inactive)
same,GI50,SW-620,> 100 µM (inactive)
same,GI50,DU-145,> 100 µM (inactive)
same,GI50,T47D,> 100 µM (inactive)
same,GI50,SK-MEL-28,> 100 µM (inactive)
C/C=C/C=C\C=C/C(O)C(C)C(CCC(C)C1OC(=O)C=CC1C)OP(=O)(O)O (stereo unspecified),GI50,A498,0.22 µM (active)
same,GI50,K562,0.183 µM (active)
same,GI50,Malme-3M,0.232 µM (active)
same,GI50,IGROV-1,0.275 µM (active)
same,GI50,MOLT-4,0.275 µM (active)
same,GI50,NCI-H226,0.614 µM (active)
same,GI50,MDA-MB-231,35.8 µM (inactive)
same,GI50,KM12,0.318 µM (active)
same,GI50,UACC-257,1.15 µM (inactive)
same,GI50,HCT-15,0.445 µM
same,GI50,SNB-19,0.562 µM (active)
same,GI50,NCI-H23,1.52 µM (inactive)
same,GI50,OVCAR-5,0.263 µM (active)
same,GI50,BT-549,0.224 µM (active)
same,GI50,MDA-MB-435,0.133 µM (active)
same,GI50,SK-MEL-2,0.692 µM (active)
same,GI50,PC-3,0.23 µM (active)
same,GI50,HOP-62,0.303 µM (active)
same,GI50,MDA-N,0.296 µM (active)
same,GI50,TK-10,0.618 µM (active)
same,GI50,NCI/ADR-RES,0.897 µM (active)
same,GI50,HOP-92,0.244 µM (active)
same,GI50,A549,0.538 µM (active)
same,GI50,HCT-116,0.251 µM (active)
same,GI50,CAKI-1,0.136 µM (active)
same,GI50,OVCAR-4,1.23 µM (inactive)
same,GI50,SN12C,0.323 µM (active)
same,GI50,RPMI-8226,0.127 µM (active)
same,GI50,EKVX,0.447 µM (active)
same,GI50,MCF7,0.272 µM (active)
same,GI50,Hs-578T,1.42 µM (inactive)
same,GI50,OVCAR-8,0.451 µM (active)
same,GI50,HL-60,0.0425 µM (active)
same,GI50,NCI-H522,1.35 µM (inactive)
same,GI50,SR,0.176 µM (active)
same,GI50,U-251,0.893 µM (active)
same,GI50,M14,0.229 µM (active)
same,GI50,RXF 393,0.527 µM (active)
same,GI50,ACHN,0.351 µM (active)
same,GI50,OVCAR-3,0.182 µM (active)
same,GI50,UO-31,0.399 µM (active)
same,GI50,CCRF-CEM,0.243 µM (active)
same,GI50,SF-539,0.461 µM (active)
same,GI50,COLO 205,0.268 µM (active)
same,GI50,LOX IMVI,0.314 µM (active)
same,GI50,SK-OV-3,0.502 µM (active)
same,GI50,786-0,0.404 µM (active)
same,GI50,SK-MEL-5,0.658 µM (active)
same,GI50,NCI-H460,0.4 µM (active)
same,GI50,UACC-62,0.319 µM (active)
same,GI50,HT-29,0.376 µM (active)
same,GI50,SF-268,0.59 µM (active)
same,GI50,SF-295,0.287 µM (active)
same,GI50,SW-620,0.479 µM (active)
same,GI50,SNB-75,0.986 µM (active)
same,GI50,DU-145,0.399 µM (active)
same,GI50,T47D,0.386 µM (active)
same,GI50,SK-MEL-28,0.804 µM (active)
